Laboratory results reported in patent US11679097B2, “Combination product containing limonoid compound and biguanide compound” (ZHEJIANG YANGSHENGTANG INSTITUTE OF NATURAL MEDICATION CO., …, priority 2017, dated 2023).

Key:
Assay type in all cases: in vivo
STZ mice [1] = test: Blood glucose in mouse model of type II diabetes with pancreatic islet damage and obesity (Example 5); details: high-fat diet + STZ ICR mice; single administration 0.5 g/kg per day by gavage, three weeks
Protocol: It should be noted that the conditions for raising the mice were as follows: the temperature was 23±1° C., the humidity was 55±10%, the lights were turned on between 7 am and 7 pm (the lights were turned off at other time), and the mice were allowed to access to water and feed freely. The experimental feed was mouse growth-stable feed (GB M2118), and the daily feeding and management of the animals were under the responsibility of the animal security department, which provided the animals with sufficient padding and fresh drinking water daily.
SPSS 16.0 software was used for statistical analysis.

STZ mice [2] = test: Blood glucose in mouse pancreatic islet β-cell injury model (Example 3); details: STZ ICR mice; single administration 0.1 g/kg per day by gavage, two weeks; 1 h after last administration
Description: Effects of a Limonoid Compound, Metformin or a Combination Thereof on Blood Glucose in a Mouse Pancreatic Islet β-Cell Injury Model In this example, a mouse pancreatic islet β-cell injury model was established by modeling ICR mice with streptozotocin (STZ) (referred to the prior art literature: Li Nan et al., Protective effect of pine pollen on kidney damage in diabetic nephropathy mice, Science and Technology Review, 2014, 32 (4/5): 95-99), and used to complete the evaluation of hypoglycemic effect in animals (this model could simulate pancreatic islet β-cell damage state of type I and type II diabetics). […] Conditions of experimental feeding: ICR mice (20±2 g), aged 6 weeks, purchased from Zhejiang Academy of Medical Sciences, and subjected to experimental feeding after 7 days of preliminary feeding. […] The experimental feed was mouse growth-stable feed (GB […]), and the daily feeding and management of the animals were under the responsibility of the animal security department, which provided the animals with sufficient padding and fresh drinking water daily. Experimental grouping: 15 male mice were randomly selected as the normal control group. […] Gavage doses: the gavage dose was 0.1 g/kg per day for the […] group, the gavage dose was 0.1 g/kg per day for the […] group, the gavage dose was 0.1 g/kg per day for the […]-glucopyranoside group, the gavage dose of metformin was 0.1 g/kg per day for the metformin group, […] dose of 0.05 g/kg and metformin at a dose of 0.05 g/kg were simultaneously gavaged per day for the […]/metformin combination group, […] dose of 0.05 g/kg and metformin at a dose of 0.05 g/kg were simultaneously gavaged per day for the […]/metformin combination group, […]-glucopyranoside at a dose of 0.05 g/kg and metformin at a dose of 0.05 g/kg were simultaneously gavaged per day for the […]-glucopyranoside/metformin combination group, the gavage volume was 10 mL/kg, and the normal group and the model group were administrated with 10 mL/kg of distilled water. […] SPSS 16.0 software was used for statistical analysis. The data were expressed as mean and standard deviation. The data before and after were analyzed by t-test, and P<0.05 was considered statistically significant.

db/db mice = test: Blood glucose and leptin in mouse model of type II diabetes (Example 2); details: single administration 0.04 g/kg per day by gavage, two weeks
Description: Effects of a Limonoid Compound, Metformin or a Combination Thereof on Blood Glucose and Leptin in a Mouse Model of Type II Diabetes In the present example, db/db mice (line name BKS.Cg-Dock7^m+/+ Lepr^db/Nju) were used to perform hypoglycemic efficacy evaluation test of animals (blood glucose level and leptin). […] Conditions for experimental feeding: as type II diabetes model mice, 6-week-old SPF-grade db/db mice were purchased from the Nanjing Model Biology Institute, and subjected to experimental feeding after 7 days of preliminary feeding. […] The experimental feed was mouse growth-stable feed (GB […]), and the daily feeding and management of the animals were under the responsibility of the animal security department, which provided the animals with sufficient padding and fresh drinking water daily. Experimental grouping: male db/db mice (20±2 g) were selected, and 18 male mice in each group were tested. […] Gavage doses: obacunone at a dose of 0.04 g/kg was gavaged per day for the obacunone group, isoobacunoic acid at a dose of 0.04 g/kg was gavaged per day for the isoobacunoic acid group, obacunone 17-β-D-glucopynoside at a dose of 0.04 g/kg was gavaged per day for the obacunone 17-β-D-glucopynoside group, metformin at a dose of 0.04 g/kg was gavaged per day for the metformin group, obacunone at a dose of 0.02 g/kg and metformin at a dose of 0.02 g/kg were simultaneously gavaged per day for the obacunone/metformin combination group, isoobacunoic acid at a dose of 0.02 g/kg and metformin at a dose of 0.02 g/kg were simultaneously gavaged per day for the isoobacunoic acid/metformin combination group, obacunone 17-β-D-glucopynoside at a dose of 0.02 g/kg and metformin at a dose of 0.02 g/kg were simultaneously gavaged per day for the obacunone 17-β-D-glucopynoside/metformin combination group, the gavage volume was 10 mL/kg, and the normal group and the model group were administrated with 10 mL/kg of distilled water. […] The data were expressed as mean and standard deviation. The data before and after were analyzed by t-test, and P<0.05 was considered statistically significant.

SMILES: CN(C)C(=N)NC(=N)N [Metformin, N,N-dimethylimidodicarbonimidic diamide, reference compound]
- Blood glucose value (STZ mice [1]): 17.9 ± 3.6 mmol/L
- Blood glucose value (STZ mice [2]): 17.2 ± 3.9 mmol/L
- Leptin (db/db mice; serum, Elisa): 34.49 ± 3.38 pg/mL
- Blood glucose value (db/db mice; 1 h after last administration): 15.5 ± 3.6 mmol/L
